This is an account of results in patent US20260053861A1, “CELL COMPOSITIONS AND METHODS OF USING THE SAME” (THE REGENTS OF THE UNIVERSITY OF CALIFORNIA, priority 2022, published 2026).

Counter-ions that a name gives are not always drawn.

One assay has as its system hPSC-SCs.
Conditions: not given
For the molecule `C=C(NC(=O)C(=C)NC(=O)c1csc(C2=N[C@@H]3c4csc(n4)[C@H]4NC(=O)c5csc(n5)[C@H]([C@](C)(O)[C@@H](C)O)NC(=O)[C@H]5CSC(=N5)/C(=C/C)NC(=O)[C@H]([C@@H](C)O)NC(=O)c5csc(n5)[C@]3(CC2)NC(=O)[C@H](C)NC(=O)C(=C)NC(=O)[C@H](C)NC(=O)[C@H]([C@@H](C)CC)N[C@@H]2C=Cc3c([C@H](C)O)cc(nc3[C@H]2O)C(=O)O[C@@H]4C)n1)C(N)=O` [Thiostrepton], the z.score.t is 0.6013.

As to `N[C@@H](Cc1cc(I)c(Oc2cc(I)c(O)c(I)c2)c(I)c1)C(=O)O` [Thyroxine (L)], the z.score.t was −0.8478.

For the molecule `CCNC1(c2cccs2)CCCCC1=O.Cl` (centres unmarked) [Tiletamine hydrochloride], the z.score.t is given as 1.958.

`C[C@H]1CC[C@]2(NC1)O[C@H]1C[C@H]3[C@@H]4CC[C@H]5C[C@@H](O)CC[C@]5(C)[C@H]4CC[C@]3(C)[C@H]1[C@@H]2C` [Tomatidine] came in with a z.score.t of −0.2904.

Molecule `C[C@H]1CC[C@]2(NC1)O[C@H]1C[C@H]3[C@@H]4CC[C@H]5C[C@@H](O[C@@H]6O[C@H](CO)[C@H](O[C@@H]7O[C@H](CO)[C@@H](O)[C@H](O[C@@H]8OC[C@@H](O)[C@H](O)[C@H]8O)[C@H]7O[C@@H]7O[C@H](CO)[C@@H](O)[C@H](O)[C@H]7O)[C@H](O)[C@H]6O)CC[C@]5(C)[C@H]4CC[C@]3(C)[C@H]1[C@@H]2C` [Tomatine] showed a z.score.t of −1.873.

`C(#CCN1CCCC1)CN1CCCC1.Cl.Cl` [Tremorine dihydrochloride] returned a z.score.t of −0.4139.

Consider `COP(=O)(OC)C(O)C(Cl)(Cl)Cl` (centres unmarked) [Trichlorfon], for which the z.score.t is recorded as −0.04944.

`COc1cc2c(c(OC)c1OC)-c1ccc(O)c(=O)cc1C(N)CC2` (centres unmarked) [Trimethylcolchicinic acid] registered a z.score.t of −0.07901.

Turning to `CN1[C@@H]2CC[C@H]1C[C@@H](O)C2` [Tropine], the z.score.t is given as −0.6133.

As for `COc1cc2c3cc1Oc1cc(ccc1O)C[C@@H]1c4c(cc(OC)c(O)c4Oc4ccc(cc4)C[C@@H]3N(C)CC2)CC[N+]1(C)C.Cl.O.O.O.O.O.[Cl-]` [Tubocurarine chloride pentahydrate (+)], the z.score.t is listed as −1.166.

`Cc1cccc(C)c1N=C1NCCCS1` [Xylazine]: the z.score.t is 1.75.

Consider `O.O=C(O)[C@@H]1[C@H]2C[C@H]3c4[nH]c5ccccc5c4CCN3C[C@@H]2CC[C@@H]1O` [Yohimbinic acid monohydrate], for which the z.score.t is listed as −0.2065.

Still in this assay, the particulars now being: HTS viability of hPSC-SCs in the presence of 30 mM glucose; Prestwick library; Table S4.
For `CCCCCCCCCCCCCCCC[N+](C)(C)CCN(Cc1ccc(OC)cc1)c1ncccn1` [Thonzonium bromide], the z.score.t is −1.884.

As for `c1ccc2[nH]c(-c3cscn3)nc2c1` [Tiabendazole], the z.score.t is recorded as 1.638.

For `CCN(CC)CCNC(=O)c1cc(S(C)(=O)=O)ccc1OC` [Tiapride hydrochloride], the z.score.t is reported as 0.5452.

For `CC(C(=O)O)c1ccc(C(=O)c2ccccc2)s1` (centres unmarked) [Tiaprofenic acid], the z.score.t is listed as 0.04918.

On to `CC1(C)S[C@@H]2[C@H](NC(=O)[C@H](C(=O)O)c3ccsc3)C(=O)N2[C@H]1C(=O)O` [Ticarcillin sodium], for which the z.score.t is reported as −0.6389.

Regarding `Clc1ccccc1CN1CCc2sccc2C1` [Ticlopidine hydrochloride], the z.score.t worked out at 0.7034.

Regarding `CCS(=O)(=O)CCn1c([N+](=O)[O-])cnc1C` [Tinidazole], the z.score.t amounted to 1.624.

Take `NC[C@H]1O[C@H](O[C@H]2[C@H](O)[C@@H](O[C@H]3O[C@H](CO)[C@@H](O)[C@H](N)[C@H]3O)[C@H](N)C[C@@H]2N)[C@H](N)C[C@@H]1O` [Tobramycin]: the z.score.t is on record as −0.3936.

Regarding `Cc1cccc(C)c1NC(=O)C(C)N` (centres unmarked) [Tocainide hydrochloride], the z.score.t was found to be 0.8938.

With `Cc1c(C)c2c(c(C)c1O)CC[C@@](C)(CCC[C@H](C)CCC[C@H](C)CCCC(C)C)O2` [Tocopherol (R,S)], the z.score.t was −0.7233.

For the molecule `CCOC(=O)NNc1nncc2ccccc12` [Todralazine hydrochloride], the z.score.t is −0.4444.

For the molecule `Cc1ccc(S(=O)(=O)NC(=O)NN2CCCCCC2)cc1` [Tolazamide], the z.score.t is 0.1767.

For `c1ccc(CC2=NCCN2)cc1` [Tolazoline hydrochloride], the z.score.t was determined as 1.268.

Turning to `Cc1c(Cl)cccc1Nc1ccccc1C(=O)O` [Tolfenamic acid], the z.score.t is reported as −0.528.

For `Cc1ccc(C(=O)c2ccc(CC(=O)O)n2C)cc1` [Tolmetin sodium salt dihydrate], the z.score.t was −0.05622.

As for `Cc1cccc(N(C)C(=S)Oc2ccc3ccccc3c2)c1` [Tolnaftate], the z.score.t is 0.378.

`Cc1cccc(Nc2ccncc2S(=O)(=O)NC(=O)NC(C)C)c1` [Torsemide]: the z.score.t was 0.2395.

On to `CCCCNc1c(C(=O)OCC)c(C)nc2c1cnn2CC` [Tracazolate hydrochloride], for which the z.score.t was −0.9487.

Turning to `NC[C@H]1CC[C@H](C(=O)O)CC1` [Tranexamic acid], the z.score.t came to 1.088.

Regarding `N[C@@H]1C[C@H]1c1ccccc1` [Tranylcypromine hydrochloride], the z.score.t is recorded as 0.08508.

For the molecule `O=c1n(CCCN2CCN(c3cccc(Cl)c3)CC2)nc2ccccn12` [Trazodone hydrochloride], the z.score.t was 0.4346.

`C[C@]12C=CC(=O)C=C1CC[C@H]1[C@@H]3C[C@@H](O)[C@](O)(C(=O)CO)[C@@]3(C)C[C@H](O)[C@@]12F` [Triamcinolone]: the z.score.t turned out to be 2.024.

Turning to `Nc1nc(N)c2nc(-c3ccccc3)c(N)nc2n1` [Triamterene], the z.score.t was 0.4903.

For `CCOC1O[C@H]([C@@H](COCc2ccccc2)OCc2ccccc2)[C@H](OCc2ccccc2)[C@H]1O` (some centres unmarked) [Tribenoside], the z.score.t is given as −1.558.

As for `NS(=O)(=O)c1cc2c(cc1Cl)NC(C(Cl)Cl)NS2(=O)=O` (centres unmarked) [Trichlormethiazide], the z.score.t is listed as −0.03362.

On to `CC[N+](CC)(CC)CCC(O)(c1ccccc1)C1CCCCC1.[Cl-]` (centres unmarked) [Tridihexethyl chloride], for which the z.score.t is given as −1.558.

As for `CN1CCN(CCCN2c3ccccc3Sc3ccc(C(F)(F)F)cc32)CC1` [Trifluoperazine dihydrochloride], the z.score.t is −1.866.

As for `CN(C)CCCN1c2ccccc2Sc2ccc(C(F)(F)F)cc21` [Triflupromazine hydrochloride], the z.score.t is recorded as −1.512.

With `O=c1[nH]c(=O)n([C@H]2C[C@H](O)[C@@H](CO)O2)cc1C(F)(F)F` [Trifluridine], the z.score.t is −0.7873.

Regarding `CC(=O)Oc1cc(C(F)(F)F)ccc1C(=O)O` [Triflusal], the z.score.t is on record as 1.139.

`C[n+]1cccc(C(=O)[O-])c1` [Trigonelline]: the z.score.t is 0.9213.

Take `Cl.OC(CCN1CCCCC1)(c1ccccc1)C1CCCCC1` (centres unmarked) [Trihexyphenidyl-D, L Hydrochloride]: the z.score.t is listed as −1.107.

Take `COc1ccc(CN2CCNCC2)c(OC)c1OC` [Trimetazidine dihydrochloride]: the z.score.t turned out to be 0.2189.

Take `CN1C(=O)OC(C)(C)C1=O` [Trimethadione]: the z.score.t stood at 1.08.

In the case of `COc1cc(C(=O)NCc2ccc(OCCN(C)C)cc2)cc(OC)c1OC` [Trimethobenzamide hydrochloride], the z.score.t is reported as −0.2719.

`COc1cc(Cc2cnc(N)nc2N)cc(OC)c1OC` [Trimethoprim]: the z.score.t is listed as 0.2479.

With `Cc1cc2cc3c(C)cc(=O)oc3c(C)c2o1` [Trioxsalen], the z.score.t is listed as −0.1913.

On to `Cc1ccc(/C(=C\CN2CCCC2)c2ccccn2)cc1` [Triprolidine hydrochloride], for which the z.score.t worked out at 0.2479.

Regarding `CO[C@H]1C[C@H](O[C@H]2[C@H](C)[C@@H](O[C@@H]3O[C@H](C)C[C@H](N(C)C)[C@H]3OC(C)=O)[C@@H](C)C[C@@]3(CO3)C(=O)[C@H](C)[C@@H](OC(C)=O)[C@@H](C)[C@@H](C)OC(=O)[C@@H]2C)O[C@@H](C)[C@@H]1OC(C)=O` [Troleandomycin], the z.score.t turned out to be 1.067.

Consider `Cc1c(C)c2c(c(C)c1O)CCC(C)(C(=O)O)O2` (centres unmarked) [Trolox], for which the z.score.t stood at 2.048.

Turning to `CN1[C@@H]2CC[C@H]1C[C@@H](OC(=O)c1c[nH]c3ccccc13)C2` [Tropisetron HCl], the z.score.t is given as −0.7595.

Turning to `CO[C@@H]1C=C2CCN(C)[C@@H]2C2c3cc4c(cc3C(=O)OC21)OCO4.O=[N+]([O-])O` (some centres unmarked) [Ungerine nitrate], the z.score.t is listed as 1.117.

As to `COc1ccccc1N1CCN(CCCNc2cc(=O)n(C)c(=O)n2C)CC1` [Urapidil hydrochloride], the z.score.t is 0.4105.

Turning to `C[C@H](CCC(=O)O)[C@H]1CC[C@H]2[C@@H]3[C@@H](O)C[C@@H]4C[C@H](O)CC[C@]4(C)[C@H]3CC[C@]12C` [Urosiol], the z.score.t is on record as −0.6988.

In the case of `C[C@H]1[C@H](C)CC[C@]2(C(=O)O)CC[C@]3(C)C(=CC[C@@H]4[C@@]5(C)CC[C@H](O)C(C)(C)[C@@H]5CC[C@]43C)[C@H]12` [Ursolic acid], the z.score.t is −0.765.

In the case of `Nc1ncnc2c1ncn2[C@@H]1O[C@H](CO)[C@@H](O)[C@@H]1O` [Vidarabine], the z.score.t was 0.1019.

In the case of `C=CC(N)CCC(=O)O` (centres unmarked) [Vigabatrin], the z.score.t is recorded as −0.8304.

For `CC[C@]12CCCN3CCc4c(n(c5ccccc45)[C@@](O)(C(=O)OC)C1)[C@@H]32` [Vincamine], the z.score.t is recorded as 0.08508.

Consider `CCOC(=O)C1=C[C@]2(CC)CCCN3CCc4c(n1c1ccccc41)[C@@H]32` [Vinpocetine], for which the z.score.t came out at 0.6517.

As to `O=c1cc(-c2ccc(O)cc2)oc2c([C@@H]3O[C@H](CO)[C@@H](O)[C@H](O)[C@H]3O)c(O)cc(O)c12` [Vitexin], the z.score.t is −0.05622.

With `O=C(NCCNCC(O)COc1ccc(O)cc1)N1CCOCC1` (centres unmarked) [Xamoterol hemifumarate], the z.score.t amounted to 0.81.

With `Cc1cc(C(C)(C)C)cc(C)c1CC1=NCCN1` [Xylometazoline hydrochloride], the z.score.t is given as −0.827.

`COC(=O)[C@@H]1[C@H]2C[C@H]3c4[nH]c5ccccc5c4CCN3C[C@@H]2CC[C@@H]1O` [Yohimbine hydrochloride]: the z.score.t stood at 0.6763.
